Experimental data reported in patent US11413278B2, “Compounds and methods for promoting stress resistance” (priority 2015, dated 2022).
Where two headings read alike, the source gives them in different places.

What was measured:
Format in all cases: cell-based, human
mTOR = mTOR inhibition (RPS6 phosphorylation status), In-Cell Western
Experimental: In-Cell Western assays were performed, following a standard immuno-staining protocol. Briefly, WI-38 cells were treated with small molecules for 24 hrs, and then processed and incubated with primary antibody cocktail (Cell Signaling, mouse anti-RPS, 1:25; rabbit-anti-pRPS6-(Ser-235/236), 1:100) overnight at 4° C. Next day, samples were processed and incubated with fluorophore-conjugated secondary antibodies (Cell Signaling, DyLight 680-goat anti-mouse, 1:500; DyLight 800-goat anti-rabbit, 1:1,000). Images were collected on an Odyssey Imager (LI-COR) and analyzed with the Image Studio Lite software (version 5.0.21).
Mammalian target of rapamycin (mTOR) is a crucial regulator of cell growth and metabolism and has been implicated in aging and many diseases, including cancer, diabetes and neurological diseases (Dazert and Hall, 2011; Zoncu et al., 2011). […] In addition, the anti-diabetes drug metformin (Kalender et al., 2010), as well as other AMPK activators such as 2-deoxy-D-glucose (Inoki et al., 2003) and AICAR (Shaw et al., 2004), could inhibit mTORC1. Applicants examined the effects of our molecules (at three doses, 5 μM, 10 μM and 20 μM) on the phosphorylation status of ribosomal protein S6 (RPS6), a readout of mTOR activity, to ask whether they could inhibit mTOR.
In-Cell Western assays were performed, following the same procedures to analyze DNA-damage markers. WI-38 cells were incubated with small molecules for 24 hrs, and then processed and incubated with primary antibody cocktail (mouse anti-RPS, 1:25; rabbit-anti-pRPS6, 1:100) overnight at 4° C. Next day, samples were processed and incubated with fluorophore-conjugated secondary antibodies (goat anti-mouse, 1:500; goat anti-rabbit, 1:1,000) in antibody dilution buffer. Images were collected on an Odyssey Imager (LI-COR) and analyzed with the Image Studio Lite software.

FOXO3 = assay: qPCR analysis of FOXO3-regulated genes; details: for fold induction at 10 µM: Homo sapiens; for K = Sestrin induction: score
Method in brief: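 FOXO3 target-gene expression quantified by qPCR normalised to B2M, PPIA and GAPDH, in WI-38 cells after 24 h exposure to 10 μM compound. Some runs used cells first transfected 36 h with 10 nM FOXO3 or NRF2 siRNA and replated ~24 h before dosing.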

NRF2 = assay: in vitro
WI-38 cells = assay: Propidium iodide (PI) cell-death imaging upon H2O2 stress; details: for Assay 7: H2O2-resistant, at 10 uM, validated by propidium iodide (PI) cell-death imaging: w/H2O2, 3 hrs/4 hrs/5 hrs, YES/NO; for cytotoxicity at 10 µM: Homo sapiens, WI-38
[1] = WI-38 cells, 10 μM, 24 hrs, n=4, qPCR normalized by B2M, read-out: DDB1 Normalized fold change
[2] = WI-38 cells, 10 μM, 24 hrs, n=4, qPCR normalized by B2M, read-out: GADD45A Normalized fold change
[3] = WI-38 cells, 10 μM, 24 hrs, n=4, qPCR normalized by B2M, read-out: SESN1 Normalized fold change
[4] = qPCR, WI-38 cells, 10 μM, n=4, 24 hrs, normalized by B2M, read-out: CAT Normalized fold change
[5] = qPCR, WI-38 cells, 10 μM, n=4, 24 hrs, normalized by B2M, read-out: SOD2 Normalized fold change
[6] = qPCR, WI-38 cells, 10 μM, n=4, 24 hrs, normalized by B2M, read-out: TXNIP Normalized fold change
[7] = H2O2 3 hrs, 10 uM, n = 6, negative control 5.44% ± 0.79%, read-out: Percentage of propidium iodide-positive dead cells (under H2O2 stress treatment), 3 hrs
[8] = pre-treatment at 10 uM, 3.5 hours of H2O2, DMSO control 27.4% ± 6.5%, */**/*** = reduced by one/two/three standard deviations, read-out: Percentage of propidium iodide-positive dead cells (under H2O2 stress treatment), at 10 uM

| Structure (SMILES) | G = mTOR down-regulation (mTOR; 2-point score) | G = mTOR down-regulation (mTOR; summary score) | E = Potential FOXO3 Activation (FOXO3; 2-point score) | fold induction at 10 µM (FOXO3; [1]) | fold induction at 10 µM (FOXO3; [2]) | fold induction at 10 µM (FOXO3; [3]) | fold induction at 10 µM (FOXO3; [4]) | fold induction at 10 µM (FOXO3; [5]) | fold induction at 10 µM (FOXO3; [6]) | K = Sestrin induction (FOXO3) | E = Potential FOXO3 Activation (FOXO3; summary score) | J = NRF2-dependency for H2O2-resistance (NRF2; score) | J = NRF2-dependency for H2O2-resistance (NRF2; summary score) | Assay 7: H2O2-resistant, at 10 uM, validated by propidium iodide (PI) cell-death imaging (WI-38 cells; 10 uM) | cytotoxicity at 10 µM (WI-38 cells; [7]) [%] | cytotoxicity at 10 µM (WI-38 cells; [8]) [%] | further results |
| --- | --- | --- | --- | --- | --- | --- | --- | --- | --- | --- | --- | --- | --- | --- | --- | --- | --- |
| CNC(=O)/C(C#N)=C/c1c(Oc2ccc(C(C)(C)C)cc2)nc2ccccn2c1=O [Gr-5D] | 0 | 0 | 0 | 0.984 | 0.698 | 1.1 | 1.27 | 1.12 | 0.669 | 0 | 0 | 0 | 0 | YES | 3.28 | 6.4 | fold induction at 10 µM (FOXO3; 10 μM, 24 hrs, WI-38 cells, qPCR, normalized to B2M, n = 4, read-out: TXNIP expression, normalized fold change (FOXO3-regulated gene)): 0.67; fold induction at 10 µM (FOXO3; fold change, qPCR, WI-38 cells, 10 μM, 24 hrs, read-out: Summary of effects on FOXO3-regulated genes: TXNIP): 0.67 |
| COc1ccc(/C=C2\SC(=N)N(c3nccs3)C2=O)cc1 [O21] | 0 | 0 | 0 | 1.45 | 2.06 | 1.88 | 1.3 | 1.12 | 0.9 | 1 | 0 | 1 | 1 | YES | 2.05 | 7.8 | fold induction at 10 µM (FOXO3; 24 h, Assay 10(m), at 10 uM, qPCR, read-out: Induction of FOXO3-regulated genes: SESN1 normalized fold-change): 1.88; fold induction at 10 µM (FOXO3; WI-38, 24 h, read-out: SESN1 expression): > 1.5; fold induction at 10 µM (FOXO3; 10 μM, 24 hrs, WI-38 cells, qPCR, normalized to B2M, n = 4, read-out: SESN1 expression, normalized fold change (FOXO3-regulated gene)): 1.88; fold induction at 10 µM (FOXO3; fold change, qPCR, WI-38 cells, 10 μM, 24 hrs, read-out: Summary of effects on FOXO3-regulated genes: SESN1): 1.88; NRF2-dependency for H2O2-resistance, at 10 uM - with H2O2, 1st experiment (NRF2; 10 uM, experiment 1 (1st), with H2O2): 1st, partial;; NRF2-dependency for H2O2-resistance, at 10 uM (experiment 3) - with & without H2O2 (NRF2; 10 uM, experiment 3, with & without H2O2): YES; NRF2-dependency for H2O2-resistance (experiment 3) (NRF2; 10 uM, with & without H2O2, NRF2 knockdown in WI-38 cells, YES = resistance reduced by at least 50%, partial = 25% to 50%): YES; NRF2-dependency for H2O2-resistance, 1st experiment (NRF2; 10 uM, with H2O2, NRF2 knockdown in WI-38 cells, YES = resistance reduced by at least 50%, partial = 25% to 50%): partial;; Assay 17: NRF2-dependency for H2O2-resistance (NRF2; 10 uM, YES/NO): YES |
| Oc1ccccc1-c1noc(-c2ccccc2O)n1 [O27] | 2 | 2 | 0 |  |  |  |  |  |  | 1 | 0 | 0 | 0 | YES | 0.55 | 0.5 | mTOR inhibition (p-RPS6/RPS6), qualitative (mTOR): consistently reduced the ratios; mTOR down-regulation by p-RPS6 assays (mTOR; Assay 14(q), at 5 uM, 10 uM & 20 uM): YES; cytotoxicity at 10 µM (WI-38 cells; H2O2 4 hrs, 10 uM, n = 6, negative control 16.81% ± 1.42%, read-out: Percentage of propidium iodide-positive dead cells (under H2O2 stress treatment), 4 hrs): 0.82%; cytotoxicity at 10 µM (WI-38 cells; H2O2 5 hrs, 10 uM, n = 6, negative control 22.50% ± 1.53%, read-out: Percentage of propidium iodide-positive dead cells (under H2O2 stress treatment), 5 hrs): 1.07% |
